{
  "source": "patent US20220338473A1",
  "about": "“USE OF BENZYL ALCOHOL AS A HERBICIDE” (INNOVI, priority 2019, published 2022)",
  "assay_in_all_cases": "Preventative activity (anti-germination), seeds on agar in Petri dish",
  "format_in_all_cases": "in vivo",
  "conditions_in_all_cases": "0.35 g sprayed (benzyl alcohol pure, 700 L/Ha; glyphosate diluted at 0.5%)",
  "key": {"Dandelion seeds": {"system": "Dandelion seeds"}, "Wheat seeds": {"system": "Wheat seeds", "procedure": "(§1) The assays were carried out on seeds sown on a Petri dish with respectively a control mode, an assay with benzyl alcohol and an assay with glyphosate herbicide (Gallup® super 360, Barclay).\n(§2) The application of the product is carried out with a trigger spray bottle which makes it possible to spray 0.35 g of product per spraying, as microdroplets.\n(§3) Seeds are placed on an agar gel in Petri dishes. 16 barley seeds, 24 rapeseed seeds, 18 wheat seeds, 10 maize seeds, 10 soybean seeds are positioned for each test.\n(§4) The seeds are sprinkled either with 0.35 g water (equivalent 700 L/Ha) including 0.35 g pure benzyl alcohol (PanReac AppliChem—ITW Reagents) (equivalent 700 L/Ha pure benzyl alcohol), or with 0.35 g water for the control, or with 0.35 g glyphosate diluted at 0.5% for the glyphosate test.\n(§5) The plants are observed at 0 and 11 days. The percentage of germination is the percentage of germinated seeds evaluated after 11 days."}, "Maize seeds": {"system": "Maize seeds", "procedure": "as §1, §2, §3, §4, §5"}, "Barley seeds": {"system": "Barley seeds", "procedure": "as §1, §2, §3, §4, §5"}, "Rapeseed seeds": {"system": "Rapeseed seeds", "procedure": "as §1, §2, §3, §4, §5"}, "Soybean seeds": {"system": "Soybean seeds", "procedure": "as §1, §2, §3, §4, §5"}},
  "data": [
    {"smiles": "O=C(O)CNCP(=O)(O)O", "note": "[Glyphosate, glyphosate, reference compound]", "values": [
      {"measurement": "Percentage of germination at 11 days", "setting": "Dandelion seeds", "value": 83, "unit": "%"},
      {"measurement": "Percentage of germination at 11 days", "setting": "Wheat seeds", "value": 100, "unit": "%"},
      {"measurement": "Percentage of germination at 11 days", "setting": "Maize seeds", "value": 100, "unit": "%"},
      {"measurement": "Percentage of germination at 11 days", "setting": "Barley seeds", "value": 100, "unit": "%"},
      {"measurement": "Percentage of germination at 11 days", "setting": "Rapeseed seeds", "value": 100, "unit": "%"},
      {"measurement": "Percentage of germination at 11 days", "setting": "Soybean seeds", "value": 100, "unit": "%"}
    ]}
  ]
}
